Reference: patent US20060263802A1 (priority 2003, published 2006)

Experiments:
Assay type in all cases: binding
[1] = tested on: human monoclonal antibody CRJB
[2] = tested on: human monoclonal antibody CR57
[3] = tested on: human monoclonal antibody CRJA
[4] = tested on: human monoclonal antibody CRJB; remark: listed apart in the source
[5] = tested on: human monoclonal antibody CRJA; remark: listed apart in the source
[6] = tested on: human monoclonal antibody CR57; remark: listed apart in the source

Sequence	Binding of CRJB to linear peptide (PEPSCAN-ELISA signal) [1]	Binding of CR57 (10 μg/ml) to looped/cyclic peptide (PEPSCAN-ELISA) [2]	Binding of CRJA to linear peptide (PEPSCAN-ELISA signal) [3]	Binding of CRJB (10 μg/ml) to looped/cyclic peptide (PEPSCAN-ELISA) [4]	Binding of CRJA (10 μg/ml) to looped/cyclic peptide (PEPSCAN-ELISA) [5]	Binding of CR57 to linear peptide (PEPSCAN-ELISA signal) [6]	Binding of CR57 (10 μg/ml) to looped/cyclic peptide (PEPSCAN-ELISA signal) [2]	Binding of CRJB (10 μg/ml) to looped/cyclic peptide (PEPSCAN-ELISA signal) [4]	Binding of CRJA (10 μg/ml) to looped/cyclic peptide (PEPSCAN-ELISA signal) [5]	binding of antibody CR57 to looped/cyclic peptide (PEPSCAN OD) [2]	binding of antibody CRJB to linear peptide (PEPSCAN OD) [1]	binding of antibody CRJA to linear peptide (PEPSCAN OD) [3]	binding of antibody CR57 to linear peptide (PEPSCAN OD) [6]
SNETKWCPPDQLVNL	129	129	94	93	102	99							
DIFTNSRGKRASKGS	107		114			70	80	82	99				
GYVTTTFKRKHFRPT	123		87			70	200	138	101	clearly bound			
CGVLGLRLMDGTWVA	117	110	96	91	101	99							
DERGLYKSLKGACKL	119	152	76	123	85	90							
SLVIISPSVADLDPY	105		88			68	98	85	87				
YDRSLHSRVFPSGKC	818		1027			364	112	72	86		clearly bound	clearly bound	bound
YTIWMPENPRLGMSC	132		111			97	191	132	93	clearly bound			
GFVDERGLYKSLKGA	120	107	104	86	87	84							
IISPSVADLDPYDRS	125		98			83	115	93	106				
RCHPHVNGVFFNGII	141	104	108	100	106	98							
KLVPGFGKAYTIFNK	114	54	73	71	71	47							
EECLDALESIMTTKS	120	105	98	70	105	82							
HHLSCPNNLVVEDEG	76		72			56	66	58	96				
NKTLMEADAHYKSVR	116	120	94	97	98	104							
TNSRGKRASKGSETC	108		89			68	107	104	104				
LIPEMQSSLLQQHME	111	98	107	85	91	89							
TFKRKHFRPTPDACR	111		97			96	112	99	105				
NPYPDYRWLRTVKTT	102		106			85	89	92	84				
PEMQSSLLQQHMELL	133	72	79	82	78	62							
RSLHSRVFPSGKCSG	141		125			87	102	93	123				
SPIDIHHLSCPNNLV	85		100			74	94	72	92				
KMAGDPRYEESLHNP	102		48			62	49	45	38				
